In paper PMC8839658, “Design and Activity of Novel Oxadiazole Based Compounds That Target Poly(ADP-ribose) Polymerase” (Molecules, 2022):

test system: MCF-7 cells; test: MCF-7 cell viability assay (Alamar Blue); type: cell-based, human; conditions: Homo sapiens, MCF7, 72 h, MCF-7, 72 h, Alamar Blue; read-out: IC50, cell viability of MCF-7 cells
Description: Initially, the newly synthesized oxadiazoles were examined in cell viability studies in human breast cancer (MCF-7) cells using Alamar Blue assays.
MCF-7 and MDA-MB-231 (2000) cells were cultured in MEM or Leibovitz’s L-15 medium enriched with 2% FBS and maintained in a humidified atmosphere of 5% CO2 at 37 °C [44]. DMSO dissolved compounds were kept as a stock solution, and diluted with a cell culture medium to the desired concentration. Cancer cells (4 × 10^3) were grown overnight in 96-well plates, cultured, and treated with oxadiazoles or Olaparib at 0, 0.01, 0.1, 10, 100, and 1000 µM concentrations for 72 h. The inhibitory effect of the compounds was assessed using Alamar Blue reagent.
MCF-7 and MDA-MB-231 were treated with 5u, 5s and Olaparib (0, 0.01, 0.1, 1, 10, 100 µM) for 72 h, respectively. The viability of MCF-7 (A) and MDA-MB-231 cells (B) were analyzed using a microplate reader to measure the fluorescence of Alamar Blue reagent (excitation wavelength is between 530–560 nm and emission wavelength is 590 nm). The results are means of triplicate determinations.

| IC50 | SMILES |
| --- | --- |
| 160 µM | Cc1cc(-c2cccc(-c3nnc(-c4ccc5c(c4)OCCO5)o3)c2)cnc1Cl [C00002] |
| 31.5 µM | COc1ccc(Cc2nnc(-c3cccc(-c4cncnc4)c3)o2)cc1 [C00003] |
| 205 µM | FC(F)(F)c1ccc(-c2cccc(-c3nnc(-c4ccc5c(c4)OCCO5)o3)c2)cc1 [C00004] |
| 161 µM | O=C(NC1CCCC1)c1cccc(-c2cccc(-c3nnc(-c4ccc5c(c4)OCCO5)o3)c2)c1 [C00006] |
| 43.5 µM | c1cc(-c2cncnc2)cc(-c2nnc(-c3ccc4c(c3)OCCO4)o2)c1 [C00007] |
| 345 µM | COc1cccc(-c2cccc(-c3nnc(-c4ccc5c(c4)OCCO5)o3)c2)c1 [C00008] |
| 33.2 µM | COc1ccc(Cc2nnc(-c3cccc(-c4cncc(C)c4C)c3)o2)cc1OC [C00009] |
| 74.8 µM | c1cc(-c2nnc(-c3ccc4c(c3)OCCO4)o2)cc(-c2cccc3ccccc23)c1 [C00010] |
| 76.4 µM | Cc1cncc(-c2cccc(-c3nnc(-c4ccc5c(c4)OCCO5)o3)c2)c1C [C00011] |
| > 100 µM | c1cc(-c2ccncc2)cc(-c2nnc(-c3ccc4c(c3)OCCO4)o2)c1 [C00012] |
| 30.9 µM | COc1ccc(Cc2nnc(-c3cccc(-c4cccnc4)c3)o2)cc1 [C00013] |
| 182 µM | c1cncc(-c2cccc(-c3nnc(-c4ccc5c(c4)OCCO5)o3)c2)c1 [C00016] |
| 265 µM | Cc1c(-c2cccc(-c3nnc(-c4ccc5c(c4)OCCO5)o3)c2)ccnc1F [C00017] |
| 41.2 µM | COc1ccc(Cc2nnc(-c3cccc(-c4cnc(F)c(C)c4)c3)o2)cc1 [C00018] |
| 85.3 µM | O=Cc1cccc(-c2cccc(-c3nnc(-c4ccc5c(c4)OCCO5)o3)c2)c1 [C00021] |
| 84 µM | Cc1cc(-c2cccc(-c3nnc(-c4ccc5c(c4)OCCO5)o3)c2)cnc1F [C00022] |
| > 100 µM | COc1ccc(Cc2nnc(-c3cccc(-c4ccc(C(C)=O)s4)c3)o2)cc1OC [C00025] |
| 0.24 µM | COc1cccc2c1C(=O)c1c(O)c3c(c(O)c1C2=O)C[C@@](O)(C(=O)CO)C[C@@H]3O[C@H]1C[C@H](N)[C@H](O)[C@H](C)O1 [Doxorubicin, reference compound] |
| 21.8 µM | COc1ccc(Cc2nnc(-c3cccc(-c4cncnc4)c3)o2)cc1OC [compound 5h, 2-(3,4-Dimethoxybenzyl)-5-(3-(pyrimidin-5-yl)phenyl)-1,3,4-oxadiazole] |
| 27.1 µM | COc1ccc(Cc2nnc(-c3cccc(-c4cccnc4)c3)o2)cc1OC [compound 5m, 2-(3,4-Dimethoxybenzyl)-5-(3-(pyridin-3-yl)phenyl)-1,3,4-oxadiazole] |
| 18.4 µM | COc1ccc(Cc2nnc(-c3cccc(-c4cnc(F)c(C)c4)c3)o2)cc1OC [compound 5p, 2-(3,4-Dimethoxybenzyl)-5-(3-(6-fluoro-5-methylpyridin-3-yl)phenyl)-1,3,4-oxadiazole] |
| 25 µM | COc1ccc(Cc2nnc(-c3cccc(-c4ccnc(F)c4C)c3)o2)cc1 [compound 5r, 2-(3-(2-Fluoro-3-methylpyridin-4-yl)phenyl)-5-(4-methoxybenzyl)-1,3,4-oxadiazole] |
| 23.1 µM | COc1ccc(Cc2nnc(-c3cccc(-c4ccc(C(C)=O)s4)c3)o2)cc1 [compound 5w, 1-(5-(3-(5-(4-Methoxybenzyl)-1,3,4-oxadiazol-2-yl)phenyl)thiophen-2-yl)ethanone] |

same assay, conditions: MCF-7, 72 h, Alamar Blue; read-out: IC50, cell viability of MCF-7 cells

| IC50 | SMILES |
| --- | --- |
| 21.9 µM | COc1ccc(Cc2nnc(-c3cccc(-c4cncnc4)c3)o2)cc1OC [C00005] |
| 27.1 µM | COc1ccc(Cc2nnc(-c3cccc(-c4cccnc4)c3)o2)cc1OC [C00014] |
| 15.3 µM | COc1ccc(Cc2nnc(-c3cccc(-c4ccnc(F)c4C)c3)o2)cc1OC [C00015] |
| 1.45 µM | COc1ccc(Cc2nnc(-c3cccc(-c4cccc(C=O)c4)c3)o2)cc1 [C00019] |
| 18.4 µM | COc1ccc(Cc2nnc(-c3cccc(-c4cnc(F)c(C)c4)c3)o2)cc1OC [C00020] |
| 23.1 µM | COc1ccc(Cc2nnc(-c3cccc(-c4ccc(C(C)=O)s4)c3)o2)cc1 [C00023] |
| 25 µM | COc1ccc(Cc2nnc(-c3cccc(-c4ccnc(F)c4C)c3)o2)cc1 [C00024] |

test system: not given; test: not given; conditions: not given

| melting point | SMILES |
| --- | --- |
| 160 to 162 °C | FC(F)(F)c1ccc(-c2cccc(-c3nnc(-c4ccc5c(c4)OCCO5)o3)c2)cc1 [5b, 2-(2,3-Dihydrobenzo[b][1,4]dioxin-6-yl)-5-(4′-(trifluoromethyl)-[1,1′-biphenyl]-3-yl)-1,3,4-oxadiazole] |
| 186 to 188 °C | O=C(NC1CCCC1)c1cccc(-c2cccc(-c3nnc(-c4ccc5c(c4)OCCO5)o3)c2)c1 [5c, N-Cyclopentyl-3′-(5-(2,3-dihydrobenzo[b][1,4]dioxin-6-yl)-1,3,4-oxadiazol-2-yl)-[1,1′-biphenyl]-3-carboxamide] |
| 156 to 158 °C | c1cc(-c2nnc(-c3ccc4c(c3)OCCO4)o2)cc(-c2cccc3ccccc23)c1 [5e, 2-(2,3-Dihydrobenzo[b][1,4]dioxin-6-yl)-5-(3-(naphthalen-1-yl)phenyl)-1,3,4-oxadiazole] |
| 194 to 196 °C | c1cc(-c2ccncc2)cc(-c2nnc(-c3ccc4c(c3)OCCO4)o2)c1 [5f, 2-(2,3-Dihydrobenzo[b][1,4]dioxin-6-yl)-5-(3-(pyridin-4-yl)phenyl)-1,3,4-oxadiazole] |
| 190 to 192 °C | c1cc(-c2cncnc2)cc(-c2nnc(-c3ccc4c(c3)OCCO4)o2)c1 [5i, 2-(2,3-Dihydrobenzo[b][1,4]dioxin-6-yl)-5-(3-(pyrimidin-5-yl)phenyl)-1,3,4-oxadiazole] |
| 198 to 200 °C | Cc1cncc(-c2cccc(-c3nnc(-c4ccc5c(c4)OCCO5)o3)c2)c1C [5k, 2-(2,3-Dihydrobenzo[b][1,4]dioxin-6-yl)-5-(3-(4,5-dimethylpyridin-3-yl)phenyl)-1,3,4-oxadiazole] |
| 138 to 140 °C | c1cncc(-c2cccc(-c3nnc(-c4ccc5c(c4)OCCO5)o3)c2)c1 [5n, 2-(2,3-Dihydrobenzo[b][1,4]dioxin-6-yl)-5-(3-(pyridin-3-yl)phenyl)-1,3,4-oxadiazole] |
| 144 to 146 °C | Cc1cc(-c2cccc(-c3nnc(-c4ccc5c(c4)OCCO5)o3)c2)cnc1F [5q, 2-(2,3-Dihydrobenzo[b][1,4]dioxin-6-yl)-5-(3-(6-fluoro-5-methylpyridin-3-yl)phenyl)-1,3,4-oxadiazole] |
| 128 to 130 °C | Cc1c(-c2cccc(-c3nnc(-c4ccc5c(c4)OCCO5)o3)c2)ccnc1F [5t, 2-(2,3-Dihydrobenzo[b][1,4]dioxin-6-yl)-5-(3-(2-fluoro-3-methylpyridin-4-yl)phenyl)-1,3,4-oxadiazole] |
| 90 to 92 °C | COc1ccc(Cc2nnc(-c3cccc(-c4cncnc4)c3)o2)cc1 [compound 5g, 2-(4-Methoxybenzyl)-5-(3-(pyrimidin-5-yl)phenyl)-1,3,4-oxadiazole] |
| 98 to 100 °C | COc1ccc(Cc2nnc(-c3cccc(-c4cncnc4)c3)o2)cc1OC [compound 5h, 2-(3,4-Dimethoxybenzyl)-5-(3-(pyrimidin-5-yl)phenyl)-1,3,4-oxadiazole] |
| 90 to 92 °C | COc1ccc(Cc2nnc(-c3cccc(-c4cncc(C)c4C)c3)o2)cc1OC [compound 5j, 2-(3,4-Dimethoxybenzyl)-5-(3-(4,5-dimethylpyridin-3-yl)phenyl)-1,3,4-oxadiazole] |
| 78 to 80 °C | COc1ccc(Cc2nnc(-c3cccc(-c4cccnc4)c3)o2)cc1OC [compound 5m, 2-(3,4-Dimethoxybenzyl)-5-(3-(pyridin-3-yl)phenyl)-1,3,4-oxadiazole] |
| 86 to 88 °C | COc1ccc(Cc2nnc(-c3cccc(-c4cnc(F)c(C)c4)c3)o2)cc1 [compound 5o, 2-(3-(6-Fluoro-5-methylpyridin-3-yl)phenyl)-5-(4-methoxybenzyl)-1,3,4-oxadiazole] |
| 91 to 93 °C | COc1ccc(Cc2nnc(-c3cccc(-c4cnc(F)c(C)c4)c3)o2)cc1OC [compound 5p, 2-(3,4-Dimethoxybenzyl)-5-(3-(6-fluoro-5-methylpyridin-3-yl)phenyl)-1,3,4-oxadiazole] |
| 94 to 96 °C | COc1ccc(Cc2nnc(-c3cccc(-c4ccnc(F)c4C)c3)o2)cc1 [compound 5r, 2-(3-(2-Fluoro-3-methylpyridin-4-yl)phenyl)-5-(4-methoxybenzyl)-1,3,4-oxadiazole] |

target: T1, recombinant human PARP enzyme (PARP1) (Homo sapiens, UniProt P09874); test: PARP activity, PARP/Apoptosis Universal Colorimetric Assay Kit; type: biochemical; conditions: 0.01 µM, n = 3
T1 construct: purchased R&D Systems Ltd., Abingdon, UK 4677-096-K
T1 sequence (P09874 whole entry): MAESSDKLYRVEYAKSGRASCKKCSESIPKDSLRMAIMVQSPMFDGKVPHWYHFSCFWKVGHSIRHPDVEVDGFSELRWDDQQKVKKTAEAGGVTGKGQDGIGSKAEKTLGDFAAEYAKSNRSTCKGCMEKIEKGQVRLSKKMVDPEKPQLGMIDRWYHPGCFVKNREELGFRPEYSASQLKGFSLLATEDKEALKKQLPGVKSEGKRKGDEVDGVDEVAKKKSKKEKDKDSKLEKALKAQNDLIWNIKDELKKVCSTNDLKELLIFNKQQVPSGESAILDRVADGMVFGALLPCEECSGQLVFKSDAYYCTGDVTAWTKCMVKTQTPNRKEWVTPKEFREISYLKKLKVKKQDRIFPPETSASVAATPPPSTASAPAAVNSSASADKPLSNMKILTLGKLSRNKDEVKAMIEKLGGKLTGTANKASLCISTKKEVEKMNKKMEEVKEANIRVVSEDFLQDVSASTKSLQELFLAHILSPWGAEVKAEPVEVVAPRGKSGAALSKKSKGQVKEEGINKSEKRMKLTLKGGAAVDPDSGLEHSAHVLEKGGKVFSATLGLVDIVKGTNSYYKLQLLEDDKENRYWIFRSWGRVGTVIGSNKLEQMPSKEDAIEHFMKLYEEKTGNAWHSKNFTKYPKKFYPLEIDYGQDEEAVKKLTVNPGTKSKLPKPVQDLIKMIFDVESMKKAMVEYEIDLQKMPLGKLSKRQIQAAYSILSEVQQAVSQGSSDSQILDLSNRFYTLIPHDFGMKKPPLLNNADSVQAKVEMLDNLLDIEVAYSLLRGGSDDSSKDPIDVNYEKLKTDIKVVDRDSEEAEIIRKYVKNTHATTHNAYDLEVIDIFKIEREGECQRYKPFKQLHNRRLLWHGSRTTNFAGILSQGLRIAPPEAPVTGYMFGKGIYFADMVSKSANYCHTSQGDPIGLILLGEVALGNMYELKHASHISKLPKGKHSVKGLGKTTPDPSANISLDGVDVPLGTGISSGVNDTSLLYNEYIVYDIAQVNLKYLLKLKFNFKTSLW
Description: PARP activity was measured using the PARP/Apoptosis Universal Colorimetric Assay Kit (4677-096-K, R&D Systems Ltd., Abingdon, UK). The enzyme inhibition assay uses the histone proteins immobilized 96-well plate, which measures the incorporation of ADP-ribose (biotin-tagged), followed by detection using streptavidin-conjugated horse-radish peroxidase, and finally the color development after the addition of substrate. Oxadiazoles were incubated with the recombinant human PARP enzyme prior to detection.

| inhibition at 0.01 µM | SMILES |
| --- | --- |
| 0.5% | NC(=O)c1cccc(N)c1 [3-Aminobenzamide, reference compound] |

same assay, conditions: 0.1 µM, n = 3

| inhibition at 0.1 µM | SMILES |
| --- | --- |
| 6.17% | NC(=O)c1cccc(N)c1 [3-Aminobenzamide, reference compound] |

same assay, conditions: 1 µM, n = 3

| inhibition at 1 µM | SMILES |
| --- | --- |
| 23.3% | NC(=O)c1cccc(N)c1 [3-Aminobenzamide, reference compound] |

same assay, conditions: 10 µM, n = 3

| inhibition at 10 µM | SMILES |
| --- | --- |
| 56.6% | NC(=O)c1cccc(N)c1 [3-Aminobenzamide, reference compound] |

same assay, conditions: 100 µM, n = 3

| inhibition at 100 µM | SMILES |
| --- | --- |
| 85.7% | NC(=O)c1cccc(N)c1 [3-Aminobenzamide, reference compound] |
